Laboratory results published in patent US20090298781A1, “COMPOUNDS FOR THE INHIBITION OF APOPTOSIS” (CONSEJO SUPERIOR DE, priority 2005, published 2009).

What was measured:
Type in all cases: cell-based
U937 cell line = assay: MTT assay, toxicity (cell viability), U937
Protocol: (§1) The MTT assay measures cell proliferation as well as reduction in cell viability when metabolic events lead to apoptosis or necrosis. It can also be used to assess the rate of survival of a given cell line when it is incubated in the presence of xenobiotics. The reduction of tetrazolium salts is accepted as a reliable way to analyse cell proliferation. The yellow tetrazolium MTT (3-(4,5-dimethylthiazolyl-2)-2,5-diphenyltetrazolium bromide) is reduced by metabolically active cells and results in the intracellular formation of purple formazan that can be spectrophotometrically measured after solubilisation with DMSO.
(§2) The MTT assay was used in this invention to assess the toxicity of compounds at different concentrations. To analyse their potential impairment in cell viability, compounds were added to Saos-2 and U937 cell lines at different concentrations and incubated at different times. Results are expressed by percentage cell viability.

[1] = system: Caspase activity, U937 cell extracts; assay: Caspase inhibition assay, U937 cell extracts; conditions: Homo sapiens, U-937, 5 μM
Protocol: The time-dependent inhibition of caspase induced by the compounds described in this invention was analysed. […] Caspase activity was assayed using Saos-2 or U937 cell extracts and Ac-DEVD-afc (N-acetyl-Asp-Glu-Val-Asp-afc(7-amino-4-trifluoromethyl coumarin)) as substrate (20 μM). Caspase activity was continuously monitored by the liberation of fluorescent afc using a Cytofluor 4000 fluorimeter (excitation 400 nm; emission 508 nm) for 1 hour. The effect of the compounds on the caspase activity was expressed as the percentage of inhibition in the fluorescence signal of treated cells vs. the non-treated cells (control).

Saos-2 cell line = assay: MTT assay, toxicity (cell viability), Saos-2
Protocol: as §1, §2

Caspase activity, HeLa = assay: Caspase inhibition assay, HeLa; conditions: Homo sapiens, 5 μM
Caspase activity, U2-OS = assay: Caspase inhibition assay, U2-OS; conditions: Homo sapiens, U2OS, 5 μM

Compound | % Cell viability (U937 cell line; U937, 24 h, 1 μM) [%] | % Cell viability (U937 cell line; U937, 24 h, 5 μM) [%] | % Cell viability (U937 cell line; U937, 24 h, 10 μM) [%] | % Cell viability (U937 cell line; U937, 48 h, 1 μM) [%] | % Cell viability (U937 cell line; U937, 48 h, 5 μM) [%] | % Cell viability (U937 cell line; U937, 48 h, 10 μM) [%] | inhibition at 5 µM ([1]; U937, 24 h) [%] | inhibition at 5 µM ([1]; U937, 48 h) [%] | inhibition at 5 µM ([1]; U937, 72 h) [%] | % Cell viability (Saos-2 cell line; Saos-2, 24 h, 1 μM) [%] | % Cell viability (Saos-2 cell line; Saos-2, 24 h, 5 μM) [%] | % Cell viability (Saos-2 cell line; Saos-2, 24 h, 10 μM) [%] | % Cell viability (Saos-2 cell line; Saos-2, 48 h, 1 μM) [%] | % Cell viability (Saos-2 cell line; Saos-2, 48 h, 5 μM) [%] | % Cell viability (Saos-2 cell line; Saos-2, 48 h, 10 μM) [%] | inhibition at 5 µM (Caspase activity, HeLa; 24 h) [%] | inhibition at 5 µM (Caspase activity, HeLa; 48 h) [%] | inhibition at 5 µM (Caspase activity, U2-OS; 24 h) [%] | inhibition at 5 µM (Caspase activity, U2-OS; 48 h) [%] | inhibition at 5 µM (Caspase activity, U2-OS; 72 h) [%] | further results
NC(=O)CN(C(=O)C1CC(=O)N(CCc2ccc(Cl)cc2Cl)CC(=O)N1CCC(c1ccccc1)c1ccccc1)C1CC1 (centres unmarked) [I.2, 1-[2-(2,4-Dichlorophenyl)ethyl]-4-(3,3-diphenylpropyl)-3,7-dioxo[1,4]diazepane-5-carboxylic acid carbamoylmethylcyclopropylamide] | 100 | 100 | 97 | 100 | 99 | 83 | 0 | 3 | 0 | 100 | 99 | 99 | 100 | 100 | 91 | 1 | 46 | 0 | 54 | 27 | inhibition at 5 µM (Caspase activity, HeLa; 72 h): 59%
CC(=O)NCCNC(=O)CNC(=O)C1CC(=O)N(CCc2ccc(Cl)cc2Cl)CC(=O)N1CCC(c1ccccc1)c1ccccc1 (centres unmarked) [I.3, 1-[2-(2,4-Dichlorophenyl)ethyl]-4-(3,3-diphenylpropyl)-3,7-dioxo[1,4]diazepane-5-carboxylic acid (2-acetylaminoethyl)carbamoylmethylamide] | 100 | 95 | 95 | 100 | 100 | 98 | 12 | 16 | 1 | 97 | 93 | 100 | 100 | 100 | 100 | 9 | 21 | 1 | 29 | 22 | inhibition at 5 µM (Caspase activity, HeLa; 72 h): 29%
NC(=O)CN(CCc1ccc(Cl)cc1)C(=O)C1CC(=O)N(CCc2ccc(Cl)cc2Cl)CC(=O)N1CCC(c1ccccc1)c1ccccc1 (centres unmarked) [I.8, 1-[2-(2,4-Dichlorophenyl)ethyl]-4-(3,3-diphenylpropyl)-3,7-dioxo[1,4]diazepane-5-carboxylic acid carbamoylmethyl[2-(4-chlorophenyl)ethyl]amide] | 100 | 98 | 99 | 100 | 98 | 99 | 5 | 15 | 23 | 100 | 100 | 99 | 97 | 100 | 100 | 5 | 3 | 0 | 16 | 24 | inhibition at 5 µM (Caspase activity, HeLa; 72 h): 6%
NC(=O)CN(CCc1ccccc1F)C(=O)C1CC(=O)N(CCc2ccc(Cl)cc2Cl)CC(=O)N1CCC(c1ccccc1)c1ccccc1 (centres unmarked) [I.9, 1-[2-(2,4-Dichlorophenyl)ethyl]-4-(3,3-diphenylpropyl)-3,7-dioxo[1,4]diazepane-5-carboxylic acid carbamoylmethyl[2-(2-fluorophenyl)-ethyl]amide] | 100 | 98 | 88 | 93 | 69 | 59 | 3 | 4 | 63 | 100 | 96 | 82 | 97 | 76 | 66 | 0 | 0 | 0 | 34 | 61 | inhibition at 5 µM (Caspase activity, HeLa; 72 h): 41%
NC(=O)CN(CCc1ccc(F)cc1)C(=O)C1CC(=O)N(CCc2ccc(Cl)cc2Cl)CC(=O)N1CCC(c1ccccc1)c1ccccc1 (centres unmarked) [I.10, 1-[2-(2,4-Dichlorophenyl)ethyl]-4-(3,3-diphenylpropyl)-3,7-dioxo[1,4]diazepane-5-carboxylic acid carbamoylmethyl[2-(4-fluorophenyl)ethyl]amide] | 96 | 99 | 89 | 100 | 98 | 99 | 0 | 5 | 2 | 76 | 100 | 91 | 100 | 100 | 100 | 1 | 6 | 0 | 22 | 64 | 
CCCCN(CC(N)=O)C(=O)C1CC(=O)N(CCc2ccc(Cl)cc2Cl)CC(=O)N1CCC(c1ccccc1)c1ccccc1 (centres unmarked) [I.11, 1-[2-(2,4-Dichloro-phenyl)ethyl]-4-(3,3-diphenylpropyl)-3,7-dioxo[1,4]diazepane-5-carboxylic acid butyl-carbamoylmethylamide] | 100 | 95 | 79 | 98 | 89 | 75 | 11 | 0 | 4 | 100 | 98 | 82 | 100 | 91 | 74 | 14 | 0 | 0 | 31 | 50 | inhibition at 5 µM (Caspase activity, HeLa; 72 h): 62%
NCCCCC(NC(=O)CN(CCc1ccc(Cl)cc1Cl)C(=O)C1CC(=O)N(CCc2ccc(Cl)cc2Cl)CC(=O)N1CCC(c1ccccc1)c1ccccc1)C(N)=O (centres unmarked) [IIa.2, 1-[2-(2,4-Dichlorophenyl)ethyl]-4-(3,3-diphenyl-propyl)-3,7-dioxo[1,4]diazepane-5-carboxylic acid [(5-amino-1-carbamoylpentylcarbamoyl)methyl]-[2-(2,4-dichlorophenyl)ethyl]amide] |  |  |  |  |  |  | 23 | 11 | 5 | 98 | 100 | 77 | 100 | 97 | 98 |  |  |  |  |  | % Cell viability (Saos-2 cell line; Saos-2, 24 h, 25 μM): 25%; % Cell viability (Saos-2 cell line; Saos-2, 24 h, 50 μM): 10%; % Cell viability (Saos-2 cell line; Saos-2, 48 h, 25 μM): 11%
